The source of these data is paper doi:10.1101/2022.03.17.484770v1 (biorxiv, 2022).

This experiment concerns the target T1, IRI1/LHT1 (Arabidopsis thaliana, UniProt Q9FKS8).
T1 sequence (Q9FKS8 1-446): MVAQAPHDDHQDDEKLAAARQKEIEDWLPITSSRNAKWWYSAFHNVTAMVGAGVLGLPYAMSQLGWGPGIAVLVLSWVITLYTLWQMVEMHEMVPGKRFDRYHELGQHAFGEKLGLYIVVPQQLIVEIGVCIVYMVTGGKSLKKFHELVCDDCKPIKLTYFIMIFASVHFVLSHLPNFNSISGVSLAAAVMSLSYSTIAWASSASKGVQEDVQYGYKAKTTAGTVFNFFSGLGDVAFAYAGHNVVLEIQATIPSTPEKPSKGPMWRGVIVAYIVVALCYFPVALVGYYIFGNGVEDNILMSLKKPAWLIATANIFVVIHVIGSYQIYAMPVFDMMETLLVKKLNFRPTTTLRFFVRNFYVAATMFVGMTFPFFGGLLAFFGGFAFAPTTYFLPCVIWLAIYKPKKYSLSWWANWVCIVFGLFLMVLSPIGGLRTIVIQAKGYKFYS
The experiment is described as follows: inhibition of […]-L-Ala uptake in yeast. The experiment is classed as cell-based.

The term Ki denotes the dissociation constant of the complex between target and ligand, obtained from inhibition or displacement.

Each structure is given as a SMILES string.

Regarding `CC(N)CC(=O)O` (racemic) [BABA, β-amino butyric acid], the Ki turned out to be 24.7 µM.

On to `N[C@@H](CO)CC(=O)O` [RBH, R-β-homoserine], for which affinity was put at a Ki of 39.2 µM. This Ki lies about 1.6-fold higher than the previous one.
